In one series the test system is Candida albicans. Put plainly: Antifungal activity against Candida albicans ATCC 90028 after 18 to 24 hrs by Alamar blue assay. Format: functional. (Alamar Blue is a resazurin reagent that responds to reducing activity.)
Another series concerns Nakaseomyces glabratus. In words: Antifungal activity against Candida glabrata ATCC 90030 after 18 to 24 hrs by Alamar blue assay. It is filed as functional.
The subject of a further series is Aspergillus fumigatus. Put plainly: Antifungal activity against Aspergillus fumigatus ATCC 90906 after 68 to 72 hrs by Alamar blue assay. It is filed as functional.
Series [1] deals with Mycobacterium intracellulare. Put plainly: Anti-bacterial activity against Mycobacterium intracellulare ATCC 23068 after 68 to 72 hrs by Alamar blue assay. It is filed as functional, cell-based.
Another series deals with Escherichia coli. In words: Anti-bacterial activity against Escherichia coli ATCC 35218 by CLSI method. Format: functional.
The subject of a further series is Pseudomonas aeruginosa. In words: Anti-bacterial activity against Pseudomonas aeruginosa ATCC 27853 by CLSI method. Format: functional.
A further series deals with Vero. In words: Cytotoxicity against African green monkey Vero cells up to 10 ug/ml after 48 hrs by neutral red dye based assay. It is filed as cell-based. The note with it: chlorocebus sabaeus.
Series [2] deals with Pichia kudriavzevii. In words: Antifungal activity against Candida krusei ATCC 6258 after 18 to 24 hrs by Alamar blue assay. It is filed as functional.
In series [3] the test system is Cryptococcus neoformans. Put plainly: Antifungal activity against Cryptococcus neoformans ATCC 90113 after 68 to 72 hrs by Alamar blue assay. Format: functional.
For series [4], the system named is Cryptococcus neoformans. Put plainly: Fungicidal activity against Cryptococcus neoformans ATCC 90113 after 68 to 72 hrs by Alamar blue assay. It is filed as functional.
In series [5] the test system is Staphylococcus aureus. Put plainly: Anti-bacterial activity against Staphylococcus aureus ATCC 29213 by CLSI method. Conditions: Staphylococcus aureus, ATCC 29213; call rule not given here. Format: functional.
The subject of series [6] is Staphylococcus aureus. In words: Anti-bacterial activity against methicillin-resistant Staphylococcus aureus ATCC 33591 by CLSI method. Format: functional. Conditions: Staphylococcus aureus, ATCC 33591; read-out: IC50.
Series [7] deals with Pichia kudriavzevii. In words: Fungicidal activity against Candida krusei ATCC 6258 after 18 to 24 hrs by Alamar blue assay. Format: functional.
[8] abbreviates: Pichia kudriavzevii, ATCC 6258, read-out: IC50.

The source of these data is ChEMBL document CHEMBL4024712, “Synthesis, stability and mechanistic studies of potent anticryptococcal hexapeptides” (Eur J Med Chem, 2017).

≈ marks a conversion by molar mass, not a printed value. Non-standard residues stand in square brackets, D forms with d. Residues, ends and D or L forms follow the SMILES beside them. His(τ-Bzl) = N[C@@H](Cc1cn(Cc2ccccc2)cn1)C(=O)O; Phe(4-Me) = Cc1ccc(C[C@H](N)C(=O)O)cc1; Cha = N[C@@H](CC1CCCCC1)C(=O)O; Phg = N[C@H](C(=O)O)c1ccccc1; Nle = CCCC[C@H](N)C(=O)O; Orn = NCCC[C@H](N)C(=O)O; Dab = NCC[C@H](N)C(=O)O

The term IC50 denotes the point on the concentration scale where inhibition reaches its midpoint. Turning to `Cc1ccc(C[C@H](NC(=O)[C@@H](Cc2ccccc2)NC(=O)[C@@H](Cc2c[nH]c3ccccc23)NC(=O)[C@@H](N)CCN)C(=O)N[C@H](Cc2ccccc2)C(=O)N[C@@H](Cc2cn(Cc3ccccc3)cn2)C(N)=O)cc1` (H-[Dab][dW][dF][Phe(4-Me)][dF][His(τ-Bzl)]-NH2), the IC50 result (in the series with Candida albicans; in the series with Nakaseomyces glabratus; in the series with Aspergillus fumigatus; in [1]; in the series with Escherichia coli; in the series on Pseudomonas aeruginosa) was “Not Active” in each case. Moreover, in the series with Vero, the Activity result was “Non-Toxic”.
As a reminder, the MIC is the lowest concentration found to suppress growth. Consider `CC[C@H](C)[C@H](NC(=O)[C@H](CC1CCCCC1)NC(=O)[C@H](Cc1ccccc1)NC(=O)[C@@H](N)CCCN)C(=O)N[C@H](Cc1ccccc1)C(=O)N[C@@H](Cc1cn(Cc2ccccc2)cn1)C(N)=O` (H-[Orn]F[Cha]I[dF][His(τ-Bzl)]-NH2), for which the IC50 result (with Candida albicans; in the series on Nakaseomyces glabratus; in the series with Pichia kudriavzevii [2]; in the series with Aspergillus fumigatus; in [1]; with Pseudomonas aeruginosa) was “Not Active” in each case. In addition, 2.5 mg/L (≈ 2.72 µM) was the least that counted as inhibitory in the series with Cryptococcus neoformans [3] (MIC). The Activity result in the series with Vero is given as “Non-Toxic”.
By MFC is commonly meant the lowest tested concentration that kills the fungus rather than only halting it. `CC[C@H](C)[C@H](NC(=O)[C@H](CC1CCCCC1)NC(=O)[C@H](CC(C)C)NC(=O)[C@@H](N)CCCN)C(=O)N[C@H](Cc1ccccc1)C(=O)N[C@@H](Cc1cn(Cc2ccccc2)cn1)C(N)=O` (H-[Orn]L[Cha]I[dF][His(τ-Bzl)]-NH2): the IC50 result (in the series on Candida albicans; in the series with Nakaseomyces glabratus; in the series on Pichia kudriavzevii [2]; in the series on Aspergillus fumigatus; in series [1]; with Pseudomonas aeruginosa) was “Not Active” each time. The minimal fungicidal concentration (MFC) in the series on Cryptococcus neoformans [4] was 2.5 mg/L (≈ 2.82 µM). Moreover, in the series with Vero, the Activity result is given as “Non-Toxic”.
As to `CC[C@H](C)[C@H](NC(=O)[C@H](CC1CCCCC1)NC(=O)[C@@H]1CCCN1C(=O)[C@@H](N)CCCN)C(=O)N[C@H](Cc1ccccc1)C(=O)N[C@@H](Cc1cn(Cc2ccccc2)cn1)C(N)=O` (H-[Orn]P[Cha]I[dF][His(τ-Bzl)]-NH2), the concentration for half-maximal inhibition (IC50) entry (with Candida albicans; with Nakaseomyces glabratus; in the series on Pichia kudriavzevii [2]; with Aspergillus fumigatus; in series [1]; in the series on Pseudomonas aeruginosa) was “Not Active” each time. The MFC in the series on Cryptococcus neoformans [4] amounted to 2.5 mg/L (≈ 2.88 µM). The Activity result in the series with Vero is on record as “Non-Toxic”.
As for `CCCC[C@H](NC(=O)[C@@H](N)CCCN)C(=O)N[C@@H](CC1CCCCC1)C(=O)N[C@H](C(=O)N[C@H](Cc1ccccc1)C(=O)N[C@@H](Cc1cn(Cc2ccccc2)cn1)C(N)=O)[C@@H](C)CC` (H-[Orn][Nle][Cha]I[dF][His(τ-Bzl)]-NH2), the IC50 result (in the series with Candida albicans; with Nakaseomyces glabratus; in the series with Pichia kudriavzevii [2]; with Aspergillus fumigatus; in series [1]; in the series on Pseudomonas aeruginosa) was “Not Active” in each case. In addition, the MFC in the series with Cryptococcus neoformans [4] was determined as 2.5 mg/L (≈ 2.82 µM). Also, the Activity entry in the series on Vero is “Non-Toxic”.
In the case of `CC[C@H](C)[C@H](NC(=O)[C@H](CC1CCCCC1)NC(=O)[C@@H](NC(=O)[C@@H](N)CCCN)c1ccccc1)C(=O)N[C@H](Cc1ccccc1)C(=O)N[C@@H](Cc1cn(Cc2ccccc2)cn1)C(N)=O` (H-[Orn][Phg][Cha]I[dF][His(τ-Bzl)]-NH2), the 50% inhibitory concentration (IC50) entry (in the series on Candida albicans; in the series on Nakaseomyces glabratus; in the series with Pichia kudriavzevii [2]; in the series on Aspergillus fumigatus; in series [1]; with Pseudomonas aeruginosa) was “Not Active” each time. For the same compound, the Activity entry with Vero is listed as “Non-Toxic”.
Consider `CC[C@H](C)[C@H](NC(=O)[C@H](CC1CCCCC1)NC(=O)[C@@H](Cc1ccccc1)NC(=O)[C@@H](N)CCCN)C(=O)N[C@H](Cc1ccccc1)C(=O)N[C@@H](Cc1cn(Cc2ccccc2)cn1)C(N)=O` (H-[Orn][dF][Cha]I[dF][His(τ-Bzl)]-NH2), for which the concentration for half-maximal inhibition (IC50) entry with Candida albicans, with Nakaseomyces glabratus, in the series on Pichia kudriavzevii [2], in the series on Aspergillus fumigatus and with Pseudomonas aeruginosa was “Not Active” throughout. In addition, in the series with Cryptococcus neoformans [4], the MFC worked out at 1.25 mg/L (≈ 1.36 µM). Besides, in the series on Vero, the Activity result was “Non-Toxic”.
For `CC[C@H](C)[C@H](NC(=O)[C@H](CC1CCCCC1)NC(=O)[C@@H](CC(C)C)NC(=O)[C@@H](N)CCCN)C(=O)N[C@H](Cc1ccccc1)C(=O)N[C@@H](Cc1cn(Cc2ccccc2)cn1)C(N)=O` (H-[Orn][dL][Cha]I[dF][His(τ-Bzl)]-NH2), the IC50 entry in the series with Candida albicans, with Nakaseomyces glabratus, in the series on Pichia kudriavzevii [2], in the series with Aspergillus fumigatus and in the series with Pseudomonas aeruginosa was “Not Active” throughout. Further, the MIC in the series with Cryptococcus neoformans [3] turned out to be 1.25 mg/L (≈ 1.41 µM); in series [1] (Mycobacterium intracellulare, ATCC 23068), 20 mg/L (≈ 22.6 µM). Also, in the series with Vero, the Activity entry was “Non-Toxic”.
As to `CC[C@H](C)[C@H](NC(=O)[C@H](CC1CCCCC1)NC(=O)[C@H]1CCCN1C(=O)[C@@H](N)CCCN)C(=O)N[C@H](Cc1ccccc1)C(=O)N[C@@H](Cc1cn(Cc2ccccc2)cn1)C(N)=O` (H-[Orn][dP][Cha]I[dF][His(τ-Bzl)]-NH2), the IC50 entry (with Candida albicans; in the series on Nakaseomyces glabratus; with Pichia kudriavzevii [2]; in the series on Aspergillus fumigatus; in series [1]; in the series with Pseudomonas aeruginosa) was “Not Active” throughout. For the same compound, in the series with Cryptococcus neoformans [3], the MIC came out at 2.5 mg/L (≈ 2.88 µM). The MFC against Cryptococcus neoformans [4] was determined as 2.5 mg/L (≈ 2.88 µM). Further, the Activity entry in the series on Vero is on record as “Non-Toxic”.
As to `CC(C)[C@H](NC(=O)[C@H](CC1CCCCC1)NC(=O)[C@@H](Cc1c[nH]c2ccccc12)NC(=O)[C@@H](N)CCCN)C(=O)N[C@H](Cc1ccccc1)C(=O)N[C@@H](Cc1cn(Cc2ccccc2)cn1)C(N)=O` (H-[Orn][dW][Cha]V[dF][His(τ-Bzl)]-NH2), the IC50 result in the series with Candida albicans, with Nakaseomyces glabratus, in the series with Pichia kudriavzevii [2], in the series on Aspergillus fumigatus, in the series with Escherichia coli and in the series on Pseudomonas aeruginosa was “Not Active” each time. This compound showed a minimum inhibitory concentration (MIC) against Cryptococcus neoformans [3] of 1.25 mg/L (≈ 1.32 µM). In addition, the minimum fungicidal concentration (MFC) against Cryptococcus neoformans [4] is 1.25 mg/L (≈ 1.32 µM). Moreover, the Activity result with Vero is “Non-Toxic”.
As to `CC[C@@H](C)[C@@H](NC(=O)[C@H](CC1CCCCC1)NC(=O)[C@@H](Cc1c[nH]c2ccccc12)NC(=O)[C@@H](N)CCCN)C(=O)N[C@H](Cc1ccccc1)C(=O)N[C@@H](Cc1cn(Cc2ccccc2)cn1)C(N)=O` (H-[Orn][dW][Cha][dI][dF][His(τ-Bzl)]-NH2), the IC50 entry in the series with Nakaseomyces glabratus, in the series on Aspergillus fumigatus and with Pseudomonas aeruginosa was “Not Active” throughout. Moreover, the Activity result in the series on Vero is “Non-Toxic”.
Turning to `CC(C)C[C@@H](NC(=O)[C@H](CC1CCCCC1)NC(=O)[C@@H](Cc1c[nH]c2ccccc12)NC(=O)[C@@H](N)CCCN)C(=O)N[C@H](Cc1ccccc1)C(=O)N[C@@H](Cc1cn(Cc2ccccc2)cn1)C(N)=O` (H-[Orn][dW][Cha][dL][dF][His(τ-Bzl)]-NH2), the IC50 entry in the series with Candida albicans was “Not Active”; with Nakaseomyces glabratus, “Not Active”; with Pichia kudriavzevii [2] (setting [8]), 20 mg/L (≈ 20.9 µM); in the series with Aspergillus fumigatus, “Not Active”; in the series with Escherichia coli, “Not Active”; with Pseudomonas aeruginosa, “Not Active”. Besides, the MIC was 2.5 mg/L (≈ 2.61 µM) against Cryptococcus neoformans [3] and 20 mg/L (≈ 20.9 µM) with Staphylococcus aureus [5]. Further, the Activity entry in the series with Vero is reported as “Non-Toxic”.
As to `Cc1ccc(C[C@H](NC(=O)[C@@H](Cc2ccccc2)NC(=O)[C@@H](Cc2c[nH]c3ccccc23)NC(=O)[C@@H](N)CCCN)C(=O)N[C@H](Cc2ccccc2)C(=O)N[C@@H](CCN)C(N)=O)cc1` (H-[Orn][dW][dF][Phe(4-Me)][dF][Dab]-NH2) [listing 1 of 2 here], the 50% inhibitory concentration (IC50) result is “Not Active” with Candida albicans; “Not Active” with Nakaseomyces glabratus; 14.8 mg/L (≈ 16.9 µM) in the series on Pichia kudriavzevii [2] (setting [8]); “Not Active” in the series on Aspergillus fumigatus; 0.8 mg/L (≈ 0.916 µM) with Cryptococcus neoformans [3]; “Not Active” in series [1]. The concentration for half-maximal inhibition (IC50) in the series on Staphylococcus aureus [6] is over 20 mg/L; in the series with Staphylococcus aureus [5] (read-out: IC50) it was 16.1 mg/L (≈ 18.4 µM); in the series on Escherichia coli (Escherichia coli, ATCC 35218, read-out: IC50), 6 mg/L (≈ 6.87 µM); in the series with Pseudomonas aeruginosa, “Not Active”. Besides, the Activity result with Vero is recorded as “Non-Toxic”.
Turning to `Cc1ccc(C[C@H](NC(=O)[C@@H](Cc2ccccc2)NC(=O)[C@@H](Cc2c[nH]c3ccccc23)NC(=O)[C@@H](N)CCCN)C(=O)N[C@H](Cc2ccccc2)C(=O)N[C@@H](CCN)C(N)=O)cc1` (H-[Orn][dW][dF][Phe(4-Me)][dF][Dab]-NH2) [listing 2 of 2 here], the MIC with Pichia kudriavzevii [2] (Pichia kudriavzevii, ATCC 6258) came to 20 mg/L (≈ 22.9 µM); with Cryptococcus neoformans [3] it was 1.25 mg/L (≈ 1.43 µM). Moreover, the MFC in the series with Pichia kudriavzevii [7] amounted to 20 mg/L (≈ 22.9 µM); in the series with Cryptococcus neoformans [4], 1.25 mg/L (≈ 1.43 µM).
On to `O=C(O)c1cn(C2CC2)c2cc(N3CCNCC3)c(F)cc2c1=O` [CIPROFLOXACIN], for which, in series [1] (Mycobacterium intracellulare, ATCC 23068, read-out: IC50), the 50% inhibitory concentration (IC50) was found to be 0.47 mg/L (≈ 1.42 µM).
